# Entries after “also recorded” stand apart in the source; their conditions may differ.
# Columns and labels:
# Type in all cases: cell-based
# PC-3 cells = assay: Cell viability (AlamarBlue), PC-3; conditions: 50 μM, 24 hours
# Procedure: Cell viability was assessed after 24 hours of incubation with the test compounds initially at three different concentrations to establish their dose-responsiveness, considering 50 μM as the highest concentration (FIG. 10).
# For cell viability (end point) assays LNCaP, PC-3 and PWR-1E cells were seeded at 2.5*10^4/ml density in 200 μl volume of a 96-well plate in triplicate and incubated for 24 hours prior testing. Test compounds were included at different concentrations to achieve a final concentration of 0.5% DMSO in each well. Effect of 0.5% DMSO on cell-viability was also evaluated. Cell viability was assessed after 24 hours of treatment using 10% Alamar Blue reagent (Invitrogen) for each well. Cell viability was monitored by the reduction of resazurin, a blue, cell-permeable and non-toxic compound, to resorufin, a red and highly fluorescent product. Viable cells continuously convert resazurin to resorufin, increasing the overall colour and fluorescence of the media surrounding cells. Fluorescence intensity can be quantitatively determined with a fluorescence microplate reader at excitation/emission 544 nm/590 nm (Spectramax Gemini). For hormone dependent cell proliferation assays in androgen deprived LNCaP cells, cells were seeded at 2*10^4 cells/ml in a 24-well plate in triplicate. […] A control for the vehicle was included to ensure no effect on viability could be detected. […]
# LNCaP cells = assay: LNCaP cell proliferation assay (androgen deprived, AlamarBlue); conditions: LNCaP, androgen deprived media, no DHT
# Procedure: To determine the optimal DHT concentration and length of treatment required for cell proliferation assays, we tested a range of DHT concentrations in 0.1% DMSO for 5 or 7 days in LNCaP cells cultured in FBS stripped phenol red free media. […] Media and treatments were replaced every second incubation day (FIGS. 12 A and B)
# (§1) For cell viability (end point) assays LNCaP, PC-3 and PWR-1E cells were seeded at 2.5*10^4/ml density in 200 μl volume of a 96-well plate in triplicate and incubated for 24 hours prior testing. Test compounds were included at different concentrations to achieve a final concentration of 0.5% DMSO in each well. Effect of 0.5% DMSO on cell-viability was also evaluated. Cell viability was assessed after 24 hours of treatment using 10% Alamar Blue reagent (Invitrogen) for each well. Cell viability was monitored by the reduction of resazurin, a blue, cell-permeable and non-toxic compound, to resorufin, a red and highly fluorescent product. Viable cells continuously convert resazurin to resorufin, increasing the overall colour and fluorescence of the media surrounding cells. Fluorescence intensity can be quantitatively determined with a fluorescence microplate reader at excitation/emission 544 nm/590 nm (Spectramax Gemini). For hormone dependent cell proliferation assays in androgen deprived LNCaP cells, cells were seeded at 2*10^4 cells/ml in a 24-well plate in triplicate. Cells were plated in phenol red free RPMI Glutamax (Invitrogen) supplemented with 10% charcoal-stripped FBS to deplete endogenous steroids 48 hours prior the assay as described in previous reports. […] Cells were treated with different concentrations of test compounds with or without 0.1 nM DHT to achieve a final concentration of 0.1% DMSO in each well. A control for the vehicle was included to ensure no effect on viability could be detected. Media and treatments were replaced every second day, after washing the cells twice with 1×PBS. Supernatants were collected after five days for secreted PSA levels evaluation and cell proliferation was assessed for the same plate using Alamar Blue in order to exclude non-specific effects due to toxicity issues.
# [1] = tested on: PSA expression in LNCaP cells; assay: PSA ELISA, secreted PSA in LNCaP cells; conditions: bell-shaped effect
# Procedure: (§2) To investigate compounds effect on PSA expression, a common biomarker for prostate cancer, we utilized a human PSA ELISA assay.
# as §1
# Secreted levels of prostate specific antigen were evaluated with a commercially available kit (Quantikine Human Kallikrein 3/PSA Immunoassay, R&D systems). The assay was performed following manufacturer's guidelines. In brief, 50 μl of standards and cell culture samples were added to pre-coated wells containing assay diluent RD1W (R&D systems) and incubated for two hours at room temperature. […] Wells were washed and treated with colored substrate (Tetramethylbenzidine) for an additional 30 minutes, after which 50 μl of stop solution (Sulphuric Acid 2N) was added per well and absorbance (450 nm with correction at 540 nm) was read with a plate reader within 30 minutes (Versamax).
# [2] = tested on: PSA expression in 22Rv1 cells; assay: PSA ELISA, secreted PSA in 22Rv1 cells; conditions: 22Rv1
# Procedure: as §2
# (§3) We repeated the same experiment in 22Rv1 cell line.
# Secreted levels of prostate specific antigen were evaluated with a commercially available kit (Quantikine Human Kallikrein 3/PSA Immunoassay, R&D systems). The assay was performed following manufacturer's guidelines. In brief, 50 μl of standards and cell culture samples were added to pre-coated wells containing assay diluent RD1W (R&D systems) and incubated for two hours at room temperature. Unbound material was washed several times and 200 μl of Horseradish Peroxidase (HRP) labeled PSA conjugate antibody was added to each well and further incubated for two hours at room temperature. Wells were washed and treated with colored substrate (Tetramethylbenzidine) for an additional 30 minutes, after which 50 μl of stop solution (Sulphuric Acid 2N) was added per well and absorbance (450 nm with correction at 540 nm) was read with a plate reader within 30 minutes (Versamax).
# 22Rv1 cells = assay: 22Rv1 cell proliferation assay
# Procedure: Thus, inhibition on cell proliferation by the compounds could not be evaluated (FIG. 14)
# as §3
# For cell viability (end point) assays LNCaP, PC-3 and PWR-1E cells were seeded at 2.5*10^4/ml density in 200 μl volume of a 96-well plate in triplicate and incubated for 24 hours prior testing. Test compounds were included at different concentrations to achieve a final concentration of 0.5% DMSO in each well. Effect of 0.5% DMSO on cell-viability was also evaluated. Cell viability was assessed after 24 hours of treatment using 10% Alamar Blue reagent (Invitrogen) for each well. Cell viability was monitored by the reduction of resazurin, a blue, cell-permeable and non-toxic compound, to resorufin, a red and highly fluorescent product. Viable cells continuously convert resazurin to resorufin, increasing the overall colour and fluorescence of the media surrounding cells. Fluorescence intensity can be quantitatively determined with a fluorescence microplate reader at excitation/emission 544 nm/590 nm (Spectramax Gemini). […] A control for the vehicle was included to ensure no effect on viability could be detected. […] Supernatants were collected after five days for secreted PSA levels evaluation and cell proliferation was assessed for the same plate using Alamar Blue in order to exclude non-specific effects due to toxicity issues.
structure (smiles),measurement,setting,value
"CC(=O)O[C@]1(C(C)=O)CC[C@H]2[C@@H]3C=C(Cl)C4=CC(=O)[C@@H]5C[C@@H]5[C@]4(C)[C@H]3CC[C@@]21C [CPA, Cyproterone Acetate, reference compound]",effect on cell viability,PC-3 cells,minor effect
same,cell proliferation in absence of DHT / androgens,LNCaP cells,induces cell proliferation; also recorded: stimulates cell proliferation
same,maximal stimulatory concentration for PSA secretion,[1],1 µM
same,PSA expression in absence of androgens,[2],remarkable increase
same,cell proliferation in absence of androgens,22Rv1 cells,couldn't see a remarkable increase

# Reference: patent US9296716B2, “Androgen receptor ligands” (THE PROVOST, FELLOWS, FOUNDATION SCHOLARS, & THE OTHER …, priority 2011, dated 2016)
